# How the values were obtained:
# [1] = test system: Ralstonia eutropha PHB-4 (reclassified as Cupriavidus necator, DSMZ 541); format: cell-based; settings: 1, 5 and 10% (w/v) TOA; shake flasks, 24 h, 30° C., 140 rpm
# Protocol: 2-Hydroxyisobutyric-acid-producing Ralstonia eutropha PHB-4 (reclassified as Cupriavidus necator, DSMZ 541), which have been transformed with the plasmid pBBR1MCS-2::icmA-icmB, SEQ ID No. 1, were grown as two 50 ml cultures in a shaking incubator under standard conditions (30° C., 140 rpm, 20 h) in LB medium.
# From this, for the biomass production, 5×10 ml were inoculated over into 40 ml of modified mineral salt medium (in accordance with Schlegel et al., 1961) and incubated for 10 h under standard conditions
# The biomass cultures were centrifuged off and resuspended in 10 ml of modified mineral salt medium.
# Using the resuspensions, 5 flasks of a Ramos shaking incubator (Respiration Activity Monitoring System) were inoculated. The flasks were filled with modified mineral salt medium (addition of 1 g/l of yeast extract and 15 g/l of fructose) with vitamin B12 (60 mg/l). 3 flasks additionally comprised 1, 5 and 10% (w/v) of trioctylamine (TOA).
# The flasks were incubated for 24 h under standard conditions (30° C., 140 rpm).
# After 0, 15 and 24 hours, samples were taken and CFU (OD), pH, and 2HIB concentration in the broth were determined.
# For the CFU determination, dilution series of the broths were prepared. The dilutions were plated out onto LB agar plates with 300 mg/l of Kanamycin and incubated for 24 h at 30° C. A 4-fold determination of the dilutions 10^−8 and 10^−9 was carried out.
# [2] = test system: Ralstonia eutropha PHB-4 (reclassified as Cupriavidus necator, DSMZ 541); format: cell-based; settings: 0.5%, 1%, 5% and 10% (w/v) TOA; over a period of 20 hours (fermentation time 46-65 hours)
# Protocol: Biocompatibility of TOA (trioctylamine) with Ralstonia eutropha Cultures of Ralstonia eutropha PHB-4 (reclassified as Cupriavidus necator, DSMZ 541) transformed with the plasmid: pBBR1MCS-2::icmA-icmB with SEQ ID No. 1 were fermented on a 400 ml scale in a standard medium for 46 hours to an OD (optical density at 600 nm) of ca. 30, which corresponds to a CFU (colony formed units) of 1×10^11 per ml, under standard conditions (30° C.; pH 6.8; rpm 250-750; pO2 20%).
# After a fermentation time of 48 hours, 0.5%, 1%, 5% and 10% (w/v) trioctylamine (TOA) were added under sterile conditions. After a further 6 and 20 hours the CFU were determined.
# To ascertain the CFU, dilution series of the broths were prepared. The dilutions were plated out onto agar plates and incubated for 24 hours at 30° C.
# The values are summarized in the table below, the CFU values are standardized to 1 ml of fermentation broth.
smiles,measurement,setting,value
"CCCCCCCCN(CCCCCCCC)CCCCCCCC [TOA, trioctylamine]","Influence on cell growth (CFU, FIG. 1)",[1],not influenced
same,Change of CFU in the presence of TOA,[2],increased further

# From patent US8703451B2, “Method for the production of free carboxylic acids” (priority 2008, dated 2014)
